In ChEMBL document CHEMBL2177069, “Novel peptidomimetic compounds containing redox active chalcogens and quinones as potential anticancer agents” (Eur J Med Chem, 2012):

Assays:
Type in all cases: functional
M14 = assay: Cytotoxicity against human M14 cells
U-251 = assay: Cytotoxicity against human U251 cells
LOX IMVI = assay: Cytotoxicity against human LOXIMVI cells
SNB-75 = assay: Cytotoxicity against human SNB75 cells
SF-539 = assay: Cytotoxicity against human SF539 cells
SF-295 = assay: Cytotoxicity against human SF295 cells
SW-620 = assay: Cytotoxicity against human SW620 cells
KM12 = assay: Cytotoxicity against human KM12 cells
HCT-15 = assay: Cytotoxicity against human HCT15 cells
HCC 2998 = assay: Cytotoxicity against human HCC2998 cells
NCI-H522 = assay: Cytotoxicity against human NCI-H522 cells
NCI-H322M = assay: Cytotoxicity against human NCI-H322M cells
HOP-92 = assay: Cytotoxicity against human HOP92 cells
NCI-H23 = assay: Cytotoxicity against human NCI-H23 cells
A549 = assay: Cytotoxicity against human A549 cells
RPMI-8226 = assay: Cytotoxicity against human RPMI8226 cells
MOLT-4 = assay: Cytotoxicity against human MOLT4 cells
HL-60 = assay: Cytotoxicity against human HL60 cells

Q: Which results are given for `CC1=C(SCCC(=O)OC(C[Se]C2=C(C)C(=O)c3ccccc3C2=O)C(=O)NCCCCCC(=O)OCc2ccccc2)C(=O)c2ccccc2C1=O` (centres undefined)?
A: GI50 (M14): 2 µM; LC50 (M14): 8.91 µM; TGI (M14; read-out: pTGI (converted)): 4.27 µM; GI50 (U-251): 4.07 µM; LC50 (U-251): 46.8 µM; TGI (U-251; read-out: pTGI (converted)): 13.5 µM; GI50 (LOX IMVI): 2.75 µM; LC50 (LOX IMVI): 69.2 µM; TGI (LOX IMVI; read-out: pTGI (converted)): 11.5 µM; GI50 (SNB-75): 11.5 µM; LC50 (SNB-75): 49 µM; TGI (SNB-75; read-out: pTGI (converted)): 24 µM; GI50 (SF-539): 4.47 µM; LC50 (SF-539): 43.7 µM; TGI (SF-539; read-out: pTGI (converted)): 15.5 µM; GI50 (SF-295): 2.51 µM; LC50 (SF-295): 97.7 µM; TGI (SF-295; read-out: pTGI (converted)): 8.71 µM; GI50 (SW-620): 2.45 µM; LC50 (SW-620): 36.3 µM; TGI (SW-620; read-out: pTGI (converted)): 9.33 µM; GI50 (KM12): 1.41 µM; LC50 (KM12): 13.8 µM; TGI (KM12; read-out: pTGI (converted)): 4.07 µM; GI50 (HCT-15): 6.61 µM; LC50 (HCT-15): 58.9 µM; TGI (HCT-15; read-out: pTGI (converted)): 21.4 µM; GI50 (HCC 2998): 6.46 µM; LC50 (HCC 2998): 46.8 µM; TGI (HCC 2998; read-out: pTGI (converted)): 18.6 µM; GI50 (NCI-H522): 3.98 µM; LC50 (NCI-H522): 44.7 µM; TGI (NCI-H522; read-out: pTGI (converted)): 15.1 µM; GI50 (NCI-H322M): 3.8 µM; LC50 (NCI-H322M): 66.1 µM; TGI (NCI-H322M; read-out: pTGI (converted)): 17.4 µM; GI50 (HOP-92): 2.69 µM; LC50 (50% lethal concentration) (HOP-92): 30.9 µM; TGI (HOP-92; read-out: pTGI (converted)): 7.94 µM; GI50 (NCI-H23): 2.75 µM; LC50 (NCI-H23): 52.5 µM; TGI (NCI-H23; read-out: pTGI (converted)): 7.76 µM; GI50 (A549): 3.98 µM; LC50 (A549): > 100 µM; TGI (A549; read-out: pTGI (converted)): 11.5 µM; GI50 (RPMI-8226): 2.63 µM; LC50 (RPMI-8226): > 100 µM; TGI (RPMI-8226; read-out: pTGI (converted)): 7.76 µM; GI50 (MOLT-4): 4.07 µM; LC50 (MOLT-4): > 100 µM; TGI (MOLT-4; read-out: pTGI (converted)): > 100 µM; GI50 (HL-60): 3.09 µM; LC50 (HL-60): > 100 µM; TGI (HL-60; read-out: pTGI (converted)): 8.51 µM
